Test results from patent US7893068B2, “Physiologically active substances” (Mercian Corporation, priority 2002, dated 2011).
Read-outs that look alike come from different tables or passages of the source.

What was measured:
VEGF promoter = test: VEGF transcription-suppressing activity (VEGF promoter-PLAP reporter, U251/1-8 cells, hypoxia); format: cell-based; settings: Homo sapiens, read-out: VEGF transcription-suppressing activities (IC50: nM)
From the text: In order to prepare reporter system reflecting transcription from VEGF promoter, VEGF promoter sequence was cloned, and inserted in secretory alkaline phosphatase (PLAP) vector to construct reporter vector.
In order to obtain the promoter region of human VEGF, VEGF genomic DNA was cloned from phage library. PCR primers having the sequences described in Sequence Numbers 1 and 2 were designed based on VEGF cDNA (GenBank accession number: X62568) and a fragment having about 340 bp was obtained by carrying out PCR. Human genomic phage library (Human genomic library, Clontech Co.) was screened using this as a probe to obtain VEGF genomic DNA. The DNA was digested by EcoRI, and the resultant fragments were inserted in the EcoRI site of pUC18. Finally, pUC18-VEGFA containing about 5.4 kb of VEGF 5′ flanking region was obtained. The pUC18-VEGFA was digested by KpnI/NheI, VEGF promoter region of about 2.3 kb obtained was inserted in the multi cloning site KpnI/NheI of secretory alkaline phosphatase (PLAP) vector (Goto et al, Mol. Pharmacol., 49, 860-873, 1996), and thus, VEGF-PLAP vector was constructed.
The above-mentioned VEGF-PLAP vector was transfected in the U251 cell cultured in the DULBECCO-modified eagle medium (DMEM; manufactured by SIGMA Co., Ltd.) containing 10% fetal calf serum, and the cells were cultured in the presence of 1 mg/mL G418 (Merck Co.) to establish G418 resistant stable clone (U251/1-8 cell).
It was confirmed that U251/1-8 cell secreted PLAP under hypoxic condition (2% O2 incubator) in the same manner as in the report (Cell. Mol. Biol. Res. 40, 35-39, 1994) and was a reporter system reflecting the transcription from VEGF promoter. The screening of the compound suppressing VEGF production which was induced by hypoxic stimulation was carried out below using the clone.
In order to remove the influence of alkaline phosphates in serum, U251/1-8 cells were rinsed twice with the adequate amount of PBS (Phosphate buffered saline), diluted in the DMEM medium containing 10% of serum in which alkaline phosphates was inactivated by the treatment of 65° C. for 20 min., and dispensed in 96-well plates by 4×10^4 cells/180 μL.
After culturing at 37° C. overnight in a CO2 incubator (5% CO2), 20 μL of the above-mentioned incubation solution containing the test compound diluted with 3-fold succession was added, and then they were incubated in a hypoxic (2% […]) incubator for 18 hours. With respect to the PLAP activity in the culture supernatants, 10 μL of the supernatants was added to 50 μL of 0.28 M Na2CO3—NaHCO3 buffer solution (pH 10.0, 8.0 mM MgSO4), and finally 50 μL of alkaline phosphatase substrate (LUMISTEIN, Genomescience Co.) was added. After reacting for one hour, the alkaline phosphatase activity of the PLAP was measured by detecting the chemical luminescence by a micro plate reader (Perkin-Elmer Co.). The PLAP activity under normoxia was set as 0%, the PLAP activity of cell which was treated under hypoxia was set as 100%, and the concentration suppressing the PLAP activity by 50% was set as the IC50 value of PLAP. The IC50 values of 11107D derivatives shown in Examples were measured, and the IC50 values of representative 11107D derivatives are shown in Table 1.

[1] = system: WiDr human colon cancer cells; test: Growth inhibitory activities on WiDr human colon cancer cells (MTT); format: cell-based; settings: 72 h, three days incubation
Procedure: WiDr human colon cancer cells cultured in DULBECCO-modified eagle medium (DMEM; manufactured by SIGMA Co., Ltd.) containing 10% fetal calf serum, penicillin (100 unit/mL) and streptomycin (100 μg/mL) were dispensed in 96-well plates by 2×10^3 cells/well. After culturing overnight in a CO2 incubator, 20 μL of the above-mentioned incubation solution containing the test compound diluted with 3-fold succession was added, followed by incubation. After three days, 50 μL of 3.3 mg/mL MTT solution was added, followed by culturing for further one hour. Then, formazan formed by the reduction by the action of living cells was extracted with 100 μL of DMSO, the absorbance (A540/A660) was determined and was set as the index of the number of living cells.
The concentrations of the compounds of the formula (I) at which the growth of WiDr human colon cancer cells are inhibited 50% were determined.

[2] = Stability in an aqueous solution (HPLC residual ratio); settings: for Peak area (mAU × sec) after 24 hours / The residual ratios (%): Britton-Robinson's buffer pH 7, 25° C., 24 hours; for Peak area (mAU × sec) initial: Britton-Robinson's buffer pH 7, before incubation
Procedure: The compounds of the formula (I) were dissolved in DMSO in concentrations of 10 to 20 mM, and these were diluted about 500 folds with Britton-Robinson's buffer solution of pH 7. Each of the solutions as sample solutions was incubated at 25° C. for 24 hours.
The sample solutions were analyzed by high performance liquid chromatography before and after incubation, and the residual ratios of the tested substances in the sample solutions after incubation were determined from the peak areas of the obtained chromatograms.

[3] = system: WiDr human colon cancer cells; test: Solid tumor growth inhibitory activities, WiDr human colon tumor model in nude mice; format: in vivo; settings: Mus musculus, iv, 360 h, read-out: Growth inhibitory activities in the WiDr human solid tumor model (T/C %)
From the text: (§1) In order to study solid tumor growth inhibitory activities of the compounds of the formula (I) in vivo, WiDr human colon cancer cells were implanted subcutaneously into the flanks of nude mice. […]. The animals were grouped so that the average of the volumes of the respective groups became uniform, when it reached about 100 mm^3. Control group was made up of 10 mice and 11107D-administering groups were made up of 5 mice. The derivatives were administered for the administering groups for 5 consecutive days by intravenous injection so as to be any of 0.625 mg, 1.25 mg, 2.5 mg, 5 mg and 10 mg/kg/day, and a vehicle was administered to the control group. The tumor volumes on Day 15 were measured, and relative tumor volume ratios (T/C %) were determined setting the tumor volume of the control group as 100%. The body weights on Day 1, Day 5, Day 8, Day 12 and Day 15 (or 16) were measured, and relative body weight variations were determined setting the body weight on Day 1 as 100%. The relative body weight ratios on the day where the body weight reached the minimum were defined as the minimum relative weight ratios and are shown in Table 3.

[4] = Body weight loss (acute toxicity) in the WiDr tumor model; format: in vivo, nude mice; settings: Dose 2.5 mg/kg, intravenous 5 consecutive days; body weight relative to Day 1
From the text: as §1

| Compound | IC50 (VEGF promoter; U-251, 18 h) | IC50 [1] | Peak area (mAU × sec) after 24 hours [2] | The residual ratios (%) [2] | Peak area (mAU × sec) initial [2] | response vs control in vivo at 2.5 mg/kg [3] | the minimum relative weight ratios [4] | IC50 (VEGF promoter; U-251, U251/1-8 cells, hypoxic incubator 18 hours, PLAP activity) |
| --- | --- | --- | --- | --- | --- | --- | --- | --- |
| CCC(O)C(C)C1OC1CC(C)(O)/C=C/C=C(\C)C1OC(=O)CC(O)CCC(C)(OC)C(OC(=O)N2C[C@@H]3C[C@H]2CN3CC)/C=C/C1C (stereo in doubt) [Compound 122, (8E,12E,14E)-7-(((1S,4S)-5-Ethyl-2,5-diazabicyclo[2.2.1]heptan-2-yl)carbonyl)oxy-3,16,21-trihydroxy-6-methoxy-6,10,12,16,20-pentamethyl-18,19-epoxytricosa-8,12,14-trien-11-olide] | 4.4 nM | 1.1 nM | 4620 mAU × sec | 94.8% | 4872 mAU × sec |  |  |  |
| CCC(O)C(C)C1OC1CC(C)(O)/C=C/C=C(\C)C1OC(=O)CC(O)CCC(C)(O)C(OC(=O)N2CCN(C)CC2)/C=C/C1C (centres unmarked) [Compound 12, (8E,12E,14E)-3,6,16,21-Tetrahydroxy-6,10,12,16,20-pentamethyl-7-((4-methylpiperazin-1-yl)carbonyl)oxy-18,19-epoxytricosa-8,12,14-trien-11-olide] | 10.2 nM |  | 5169 mAU × sec | 94.9% | 5450 mAU × sec | 21% | 0.85 |  |
| CCC(O)C(C)C1OC1CC(C)(O)/C=C/C=C(\C)C1OC(=O)CC(O)CCC(C)(O)C(OC(=O)N(C)C2CCN(C)CC2)/C=C/C1C (centres unmarked) [Compound 15, (8E,12E,14E)-3,6,16,21-Tetrahydroxy-6,10,12,16,20-pentamethyl-7-(N-methyl-N-(1-methylpiperidin-4-yl)carbamoyloxy)-18,19-epoxytricosa-8,12,14-trien-11-olide] |  |  |  |  |  | 36% | 0.82 |  |
| CCC(O)C(C)C1OC1CC(C)(O)/C=C/C=C(\C)C1OC(=O)CC(O)CCC(C)(O)C(OC(=O)N2CCCN(Cc3ccccc3)CC2)/C=C/C1C (centres unmarked) [Compound 17, (8E,12E,14E)-7-((4-Benzylhomopiperazin-1-yl)carbonyl)oxy-3,6,16,21-tetrahydroxy-6,10,12,16,20-pentamethyl-18,19-epoxytricosa-8,12,14-trien-11-olide] | 3.9 nM | 2.6 nM |  |  |  |  |  |  |
| CCC(O)C(C)C1OC1CC(C)(O)/C=C/C=C(\C)C1OC(=O)CC(O)CCC(C)(O)C(OC(=O)N2CCN(Cc3ccccc3)CC2)/C=C/C1C (centres unmarked) [Compound 24, (8E,12E,14E)-7-((4-Benzylpiperazin-1-yl)carbonyl)oxy-3,6,16,21-tetrahydroxy-6,10,12,16,20-pentamethyl-18,19-epoxytricosa-8,12,14-trien-11-olide] | 5.5 nM | 5.3 nM |  |  |  |  |  |  |
| CCCN1CCN(C(=O)OC2/C=C/C(C)C(/C(C)=C/C=C/C(C)(O)CC3OC3C(C)C(O)CC)OC(=O)CC(O)CCC2(C)O)CC1 (centres unmarked) [Compound 25, (8E,12E,14E)-3,6,16,21-Tetrahydroxy-6,10,12,16,20-pentamethyl-7-((4-propylpiperazin-1-yl)carbonyl)oxy-18,19-epoxytricosa-8,12,14-trien-11-olide] | 2.9 nM | 1.2 nM |  |  |  |  |  |  |
| CCC(O)C(C)C1OC1CC(C)(O)/C=C/C=C(\C)C1OC(=O)CC(O)CCC(C)(O)C(OC(=O)N2CCN(CC3CC3)CC2)/C=C/C1C (centres unmarked) [Compound 27, (8E,12E,14E)-7-((4-(Cyclopropylmethyl)piperazin-1-yl)carbonyl)oxy-3,6,16,21-tetrahydroxy-6,10,12,16,20-pentamethyl-18,19-epoxytricosa-8,12,14-trien-11-olide] | 3.7 nM | 1.2 nM |  |  |  |  |  |  |
| CCC(O)C(C)C1OC1CC(C)(O)/C=C/C=C(\C)C1OC(=O)CC(O)CCC(C)(OC)C(OC(=O)N2CCCN(C3CCCCC3)CC2)/C=C/C1C (centres unmarked) [Compound 95, (8E,12E,14E)-7-((4-Cyclohexylhomopiperazin-1-yl)carbonyl)oxy-3,16,21-trihydroxy-6-methoxy-6,10,12,16,20-pentamethyl-18,19-epoxytricosa-8,12,14-trien-11-olide] | 1.2 nM | 0.5 nM |  |  |  |  |  |  |
| CCOC1(C)CCC(O)CC(=O)OC(/C(C)=C/C=C/C(C)(O)CC2OC2C(C)C(O)CC)C(C)/C=C/C1OC(=O)N1CCN(C)CC1 (centres unmarked) [Compound 127, (8E,12E,14E)-6-Ethoxy-3,16,21-trihydroxy-6,10,12,16,20-pentamethyl-7-((4-methylpiperazin-1-yl)carbonyl)oxy-18,19-epoxytricosa-8,12,14-trien-11-olide] |  | 0.7 nM |  |  |  |  |  | 2.4 nM |
| CCC(OC)C(C)C1OC1CC(C)(O)/C=C/C=C(\C)C1OC(=O)CC(O)CCC(C)(O)C(OC(=O)N2CCN(C(C)C)CC2)/C=C/C1C (centres unmarked) [Compound 130, (8E,12E,14E)-3,6,16-Trihydroxy-7-((4-isopropylpiperazin-1-yl)carbonyl)oxy-21-methoxy-6,10,12,16,20-pentamethyl-18,19-epoxytricosa-8,12,14-trien-11-olide] |  |  | 4583 mAU × sec | 95.1% | 4819 mAU × sec |  |  |  |
| CCC(O)C(C)C1OC1CC(C)(O)/C=C/C=C(\C)C1OC(=O)CC(O)CCC(C)(OC(=O)N2CCCN(CC)CC2)C(OC(C)=O)/C=C/C1C (centres unmarked) [Compound 136, (8E,12E,14E)-7-Acetoxy-6-((4-ethylhomopiperazin-1-yl)carbonyl)oxy-3,16,21-trihydroxy-6,10,12,16,20-pentamethyl-18,19-epoxytricosa-8,12,14-trien-11-olide] | 1.2 nM | 0.8 nM | 3579 mAU × sec | 95.4% | 3750 mAU × sec |  |  |  |
| CCC(O)C(C)C1OC1CC(C)(O)/C=C/C=C(\C)C1OC(=O)CC(O)CCC(C)(O)C(OC(=O)CCc2ccccc2)/C=C/C1C (centres unmarked) [Compound 142, (8E,12E,14E)-3,6,16,21-Tetrahydroxy-6,10,12,16,20-pentamethyl-7-(3-phenylpropanoyl)oxy-18,19-epoxytricosa-8,12,14-trien-11-olide] | 11.2 nM | 4.9 nM | 3705 mAU × sec | 94.6% | 3916 mAU × sec |  |  |  |
